Measured values taken from a melting point compilation (Tetko et al.; mined from patent text by program, amines drawn as free bases though some values may be those of a salt).

| Compound | melting point [°C] |
| --- | --- |
| Cc1noc(NC(=O)N2CCN(c3cc(-c4cccc(F)c4F)ncn3)CC2)c1C | 210 to 211 |
| CC(C)Cn1cc(C(=O)O)c2ccc(Cl)cc21 | 205 to 206 |
| O=C(O)CCCCCOc1ccc([N+](=O)[O-])cc1 | 104 to 107 |
| C=CCNc1ccnc2cn[nH]c12 | 230 to 232 |
| O=C(O)CCCCCCCCCCCCCCCCC(=O)ON1C(=O)CCC1=O | 120 to 122 |
| CC(C)(C#N)CNC(=O)c1n[nH]cc1NC(=O)c1ccccn1 | 238 to 240 |
| CS(=O)(=O)c1nnc(C(F)F)s1 | 59 |
| O=C1Nc2cc(CN3CC=C(c4ccc(Cl)cc4)CC3)cnc2N2CCC[C@@H]12 | 234 to 235 |
| CC(=O)NCC=C1CCc2ccc3nn(C)cc3c21 | 200 to 202 |
| COc1cc2c(cc1OC)C(=CN1CCN(C(=O)C3CCCCO3)CC1)C(=O)N2 (stereo unspecified) | 208 to 210 |
| CCC(C)(Cc1c[nH]c2ccc(F)cc12)[N+](=O)[O-] (stereo unspecified) | 71 to 72 |
| Cc1c(C)c2c(c(C)c1NC(=O)NC(C)(C)C)C(c1ccc(C(C)C)cc1)CO2 (stereo unspecified) | 201 to 202 |
| O=S(=O)(CCO)CCC(c1cc(F)ccc1F)S(=O)(=O)c1ccc(Cl)cc1 (stereo unspecified) | 111 to 113 |
| CCC1(C)NC(=O)C(CCSC)O1 (stereo unspecified) | 62 |
| CCOC(=O)c1cn(-c2cnsn2)c2c(F)c(F)c(F)cc2c1=O | 167 to 169 |
| CCCCCCCCCCCCCCC(=O)C(=O)NC(C=CC(=O)O)CCCC (stereo unspecified) | 65 to 67 |
| CCCCCCCCC=CCCCCCCCCCCCC(=O)NCCOC(C)=O | 51 |

| Compound | melting point [°C] |
| --- | --- |
| OCCOc1ccc2cc[nH]c2c1 | 74 to 77 |
| Cn1ncc2c1-c1c(Oc3ccc(F)cc3)sc(C(N)=O)c1CC2 | 188 to 189 |
| CCc1c(-c2nnc(C)s2)cc2oc(=O)c(C)c(C)c2c1OC | 201 to 203 |
| CC1(C)C2CC[C@]1(C)C(=O)C(C(=O)Nc1ccc([N+](=O)[O-])cc1)C2=O (stereo partly specified) | 168 to 170 |
| O=c1[nH]c2cc(Cl)cc(Cl)c2c(=O)n1Cc1ccc(F)cc1 | 301 to 304 |
| CCC(C)(C)NC(=O)NC(C)C#N (stereo unspecified) | 129 to 130 |
| CN(C)C(=O)CN1CCc2ccc([N+](=O)[O-])cc2CC1 | 94 to 96 |
| Cc1cc(C(=O)NC2CC2)ccc1N1CCN(Cc2cc(C)c3c(c2)NC(=O)C(C)O3)CC1 (stereo unspecified) | 241 to 242 |
| O=C1CCCC(=O)N1c1cc(Cl)cc(Cl)c1 | 172 to 174 |
| CC(=O)CCC(=O)C1=Cc2ccccc2C1 | 85 |
| O=C1CC(=O)OC(CCl)C1 (single isomer, unassigned; (-)) | 98 to 99 |
| O=c1[nH]ccn1CC#CCN1CCCC1 | 99 to 102 |
| CCOC(=O)C1(C(=O)OCC)CCC2(CC1)NCCc1cc(O)c(O)cc12 | 180 to 181 |
| NC(=O)c1ccc(F)c2c1OCC(N(CCCc1c[nH]c3ccc(F)cc13)C1CCC1)C2 (stereo unspecified) | 132 |
| CCC12CCC3C4CCC(=O)C=C4CCC3C1CCC2OC(=O)c1ccccc1 (stereo unspecified) | 141 to 149 |
| CC(C)(C)c1cc(CC(Cc2cc(C(C)(C)C)c(O)c(C(C)(C)C)c2)(Cc2cc(C(C)(C)C)c(O)c(C(C)(C)C)c2)[N+](=O)[O-])cc(C(C)(C)C)c1O | 199 to 201 |
| CCc1nn(Cc2cccnn2)c(C(N)=O)c1N | 171 to 174 |

More lines, now with the values ahead:

| melting point [°C] | Compound |
| --- | --- |
| 245 to 246 | COc1cc(OC)c2c(=O)[nH]c(-c3cccc(OCCO)c3)nc2c1 |
| 195 | Cc1ccc(-c2nn(-c3cccc4ccccc34)c(N)c2C(N)=O)cc1 |
| 138 to 140 | CCOCCn1c(C2CCN(CCc3ccc(C(C)(C)C)cc3)CC2)nc2ccccc21 |
| 230 | Oc1ccc2nc(-n3ccnc3)nc(NCc3ccccc3)c2c1 |
| 200 to 201 | CCCn1nc2c(N)nc3ccccc3c2c1NC |
| 73 | Cc1c(CC=CCCC(=O)O)cccc1C(=O)c1ccc(Cl)cc1 |
| 216 to 218 | O=c1[nH]c2occc2c2ccccc12 |
| 188 to 190 | Cc1ccc(-c2csc(/C=C/C(=O)Nc3ccc(CN(C)C4CCOCC4)cc3)c2)cc1 |
| 129 to 130 | CCOCc1nc2c(N)nc(C)c(C)c2n1CCOCC#Cc1ccccc1 |
| 160 to 161 | CSc1ccc(-c2nn(Cc3cccnc3)c(=O)cc2-c2ccc(F)cc2)cc1 |
| 111 to 115 | CC(C)C[C@@H](C=NNC(N)=O)NC(=O)[C@H](Cc1c[nH]cn1)NC(=O)C(Cc1ccccc1)Cc1ccccc1 |
| 195 | Cc1cc(Oc2ccccc2)c(S(C)(=O)=O)cc1C(=O)O |
| 189 to 192 | CC(C)([C@H](NC(=O)OCC1c2ccccc2-c2ccccc21)C(=O)O)S(C)(=O)=O |
| 134 | O=S(=O)(c1ccc(Cl)cc1)N1CCCC1c1ccccc1F (racemic) |
| 146 to 149 | CC(C)(C)OC(=O)NC(Cc1ccccc1)C(=O)Nc1ccc2[nH]cc(CC#N)c2c1 (stereo unspecified) |
| 246 to 248 | Cc1nc(-n2ccc(NC(=O)c3ccccc3)cc2=O)sc1C(=O)NCc1ccccc1 |
| > 250 | O=Cc1cccn1-c1ccc2ccc3[nH]c(=O)c(=O)[nH]c3c2c1 |
| 117 | CN(C)c1ccc(C(O)C#Cc2ccncc2)cc1 (stereo unspecified) |
| 238 | Cc1c(C(=O)Nc2ccc(N3CCC(=O)CC3)c(C#N)c2)cnn1-c1ccc(Cl)cc1 |

| melting point [°C] | Compound |
| --- | --- |
| 154 to 155 | Nc1nc2ccccc2c2c1ncn2CCOCC#Cc1ccccc1C(F)(F)F |
| 83 to 84 | CCCCc1c(C(C)C)nc(C(C)C)c(CO)c1-c1ccccc1 |
| 198 to 200 | CNc1nc(NC)nc(-c2ccc(-c3ccccc3)cc2)n1 |
| 160 to 165 | CN(C)C(=O)N(C)Cc1ccc(CCn2cnc3cc(-c4ccc(Cl)cc4)sc3c2=O)cc1 |
| 103 to 105 | O=C1C[C@@H]2[C@@H](CC[C@H](CCc3ccccc3)OC3CCCCO3)[C@H](OC(=O)c3ccc(-c4ccccc4)cc3)C[C@@H]2O1 (stereo partly specified) |
| 115 to 157 | CC(C)COc1ccc(-c2ccc3nnn(Cc4ccc5ccccc5n4)c3n2)cc1F |
| 124 to 129 | CC1C(=O)N(C(=O)NS(=O)(=O)c2ccc(Cl)cc2)N1C(c1ccccc1)c1ccccc1 (stereo unspecified) |
| 249 to 250 | COc1ccc(C(=O)Nc2c(Cl)cncc2Cl)c2c3cc(Cl)ccc3n(Cc3ccc(F)cc3)c12 |
| 184 to 186 | CC1Nc2ccc(-c3ccc(F)c(C#N)c3)cc2C(C)(C)O1 (stereo unspecified) |
| 83 to 84 | CCC(=O)c1ccc(S(=O)(=O)c2ccccc2)cc1 |
| 44 to 47 | COc1c2ccccc2nc2c1c(C)nn2-c1ccccn1 |
| 174 to 175 | CCOC(=O)c1cnc2c(NC(=O)c3c(Cl)cccc3Cl)cccc2c1SCC(=O)O |
| 198 to 200 | Cc1cc(-c2cncc(OC3SCC(O)C(O)C3O)c2)ccc1C#N (stereo unspecified) |
| 120 to 122 | Cc1ccc(NS(=O)(=O)c2ccccc2)cc1NC(=O)Cc1ccc(C#N)cc1 |
| 235 to 237 | Cc1nc(-c2n[nH]c(Cc3ccccc3)n2)sc1C(=O)NCc1ccccc1 |
| 103 to 105 | O=c1oc(-c2ccccc2)cc(O)c1SCCCCc1ccccc1 |
| 252 to 254 | COc1ccc(-c2nc3cccnc3[nH]2)cc1NS(=O)(=O)c1cccs1 |
| 242 to 247 | Cc1ccccc1S(=O)(=O)NC1CCc2sc(-c3ccc(=O)[nH]n3)cc2C1 (stereo unspecified) |
